Reference: ChEMBL document CHEMBL1201862, “PubChem BioAssay data set” (2004)
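In this assay, cells in 96-well plates receive the compound at five concentrations for 48 hours. Endpoints are linearly interpolated between the surrounding concentrations. GI50 is the concentration that inhibits growth by half.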 Activity calls are given as the source filed them. Rule as the data show it: active = GI50 up to about 1.1 µM and inactive = higher.

What was measured:
Experiment in all cases: NCI-60 cell line screen, 48 h
OVCAR-4 = test system: OVCAR-4
SK-MEL-2 = test system: SK-MEL-2
OVCAR-8 = test system: OVCAR-8
T47D = test system: T47D
UACC-257 = test system: UACC-257
CAKI-1 = test system: CAKI-1
EKVX = test system: EKVX
HCT-15 = test system: HCT-15
K562 = test system: K562
SN12C = test system: SN12C
LOX IMVI = test system: LOX IMVI
A498 = test system: A498
UACC-62 = test system: UACC-62
NCI-H522 = test system: NCI-H522
PC-3 = test system: PC-3
RPMI-8226 = test system: RPMI-8226
DU-145 = test system: DU-145
HCC 2998 = test system: HCC 2998
NCI/ADR-RES = test system: NCI/ADR-RES
786-0 = test system: 786-0

| SMILES | GI50 (OVCAR-4) | GI50 (SK-MEL-2) | GI50 (OVCAR-8) | GI50 (T47D) | GI50 (UACC-257) | GI50 (CAKI-1) | GI50 (EKVX) | GI50 (HCT-15) [µM] | GI50 (K562) | GI50 (SN12C) | GI50 (LOX IMVI) | GI50 (A498) | GI50 (UACC-62) | GI50 (NCI-H522) | GI50 (PC-3) | GI50 (RPMI-8226) | GI50 (DU-145) | GI50 (HCC 2998) | GI50 (NCI/ADR-RES) | GI50 (786-0) |
| --- | --- | --- | --- | --- | --- | --- | --- | --- | --- | --- | --- | --- | --- | --- | --- | --- | --- | --- | --- | --- |
| O=C(O)c1cc(O)nc(S)n1 | > 100 µM (inactive) | > 100 µM (inactive) | > 100 µM (inactive) | > 100 µM (inactive) | > 100 µM (inactive) | > 100 µM (inactive) | > 100 µM (inactive) | > 100 | > 100 µM (inactive) | > 100 µM (inactive) | > 100 µM (inactive) | > 100 µM (inactive) | > 100 µM (inactive) | > 100 µM (inactive) | > 100 µM (inactive) | > 100 µM (inactive) | > 100 µM (inactive) | > 100 µM (inactive) | > 100 µM (inactive) | > 100 µM (inactive) |
| O=S(=O)(c1ccccc1)N1CCN(S(=O)(=O)c2ccccc2)c2ccccc21 | > 100 µM (inactive) | > 100 µM (inactive) | > 100 µM (inactive) | > 100 µM (inactive) | 75.5 µM (inactive) | > 100 µM (inactive) | 31 µM (inactive) | 92.7 | 96.4 µM (inactive) | > 100 µM (inactive) | > 100 µM (inactive) | > 100 µM (inactive) | 64.7 µM (inactive) | 42.5 µM (inactive) | > 100 µM (inactive) | > 100 µM (inactive) | > 100 µM (inactive) | > 100 µM (inactive) | 95.7 µM (inactive) | > 100 µM (inactive) |
| CCc1cccc(C(C)C)c1NC(=O)C(=O)C1C(=O)Nc2ccccc2[S+]1[O-] (stereo not drawn) | > 100 µM (inactive) | > 100 µM (inactive) | > 100 µM (inactive) | > 100 µM (inactive) | > 100 µM (inactive) | > 100 µM (inactive) | 57.8 µM (inactive) | > 100 |  | > 100 µM (inactive) | > 100 µM (inactive) | > 100 µM (inactive) | > 100 µM (inactive) | > 100 µM (inactive) | > 100 µM (inactive) | > 100 µM (inactive) | > 100 µM (inactive) | > 100 µM (inactive) | > 100 µM (inactive) | > 100 µM (inactive) |
| O=C[C@@H](CO)O[C@H](C=O)c1c[nH]c(=O)[nH]c1=O | 83.9 µM (inactive) | 100 µM (inactive) | 66.1 µM (inactive) | 73.6 µM (inactive) | 104 µM (inactive) | 71.6 µM (inactive) | 75.7 µM (inactive) | 57.8 | 66.1 µM (inactive) | 83 µM (inactive) | 93.8 µM (inactive) | 119 µM (inactive) | 72.8 µM (inactive) | 70.1 µM (inactive) | 89.1 µM (inactive) | 53.8 µM (inactive) | 100 µM (inactive) | 98.4 µM (inactive) | 103 µM (inactive) | 128 µM (inactive) |
| CC(=O)OC1=c2ccccc2=C(O)C2C1C=NN2C(C)=O (stereo not drawn) | > 100 µM (inactive) | > 100 µM (inactive) | > 100 µM (inactive) | > 100 µM (inactive) | > 100 µM (inactive) | > 100 µM (inactive) | 79.4 µM (inactive) | > 100 | 18.4 µM (inactive) | > 100 µM (inactive) | > 100 µM (inactive) | > 100 µM (inactive) | > 100 µM (inactive) | > 100 µM (inactive) | > 100 µM (inactive) | > 100 µM (inactive) | > 100 µM (inactive) | > 100 µM (inactive) | > 100 µM (inactive) | > 100 µM (inactive) |
| O=c1cc(CO)oc(C(O)c2ccccc2)c1O (stereo not drawn) | > 100 µM (inactive) | > 100 µM (inactive) | > 100 µM (inactive) | > 100 µM (inactive) | > 100 µM (inactive) | > 100 µM (inactive) |  | > 100 |  | > 100 µM (inactive) | > 100 µM (inactive) | > 100 µM (inactive) | > 100 µM (inactive) | > 100 µM (inactive) | > 100 µM (inactive) | > 100 µM (inactive) | > 100 µM (inactive) | > 100 µM (inactive) | > 100 µM (inactive) | > 100 µM (inactive) |
| O=C1c2ccc(O)cc2OC(c2cc(O)c(O)c(O)c2)C1O (stereo not drawn) [DIHYDROBINETIN] | 37.9 µM (inactive) | 33.1 µM (inactive) | 22 µM (inactive) | 37.8 µM (inactive) | 34.8 µM (inactive) | 53.8 µM (inactive) | 19 µM (inactive) | 33.7 |  | 20.4 µM (inactive) | 19.1 µM (inactive) | 28.1 µM (inactive) | 30.1 µM (inactive) | 24.8 µM (inactive) | > 100 µM (inactive) | 17.8 µM (inactive) | 47.3 µM (inactive) | 31.6 µM (inactive) | 25.1 µM (inactive) | 23.8 µM (inactive) |
| COc1cc2ccc(C(=O)NCCCNC(=O)c3ccc4cc(OC)c(OC)cc4c3)cc2cc1OC | 57.8 µM (inactive) | > 100 µM (inactive) | > 100 µM (inactive) | > 100 µM (inactive) | > 100 µM (inactive) | > 100 µM (inactive) | > 100 µM (inactive) | > 100 | > 100 µM (inactive) | > 100 µM (inactive) | > 100 µM (inactive) | > 100 µM (inactive) | > 100 µM (inactive) | > 100 µM (inactive) | > 100 µM (inactive) |  | > 100 µM (inactive) | > 100 µM (inactive) | > 100 µM (inactive) | > 100 µM (inactive) |
| CCCCCC/C=C/C#CCCCCCCCC(=O)O | > 100 µM (inactive) | > 100 µM (inactive) | > 100 µM (inactive) | > 100 µM (inactive) | > 100 µM (inactive) | > 100 µM (inactive) | > 100 µM (inactive) | > 100 | > 100 µM (inactive) | > 100 µM (inactive) | > 100 µM (inactive) | > 100 µM (inactive) |  | > 100 µM (inactive) | > 100 µM (inactive) | > 100 µM (inactive) | > 100 µM (inactive) | > 100 µM (inactive) | > 100 µM (inactive) | > 100 µM (inactive) |
| N#Cc1c(Nc2nc3ccccc3s2)c2ccccc2n2c1nc1ccccc12 | > 100 µM (inactive) | > 100 µM (inactive) | > 100 µM (inactive) | > 100 µM (inactive) | > 100 µM (inactive) | > 100 µM (inactive) | > 100 µM (inactive) | > 100 |  | > 100 µM (inactive) | > 100 µM (inactive) | 89.5 µM (inactive) | > 100 µM (inactive) | > 100 µM (inactive) | > 100 µM (inactive) | > 100 µM (inactive) | > 100 µM (inactive) | > 100 µM (inactive) | 72.4 µM (inactive) | 29 µM (inactive) |
| O=C1c2cc3c(cc2CC12Cc1ccccc1C2)CCC3 | 50.2 µM (inactive) | 23.5 µM (inactive) | 21.2 µM (inactive) | 45.9 µM (inactive) | 20.1 µM (inactive) | 15.5 µM (inactive) | 29.9 µM (inactive) | 33.9 | 44.3 µM (inactive) | 29.1 µM (inactive) | 18.6 µM (inactive) | 34.4 µM (inactive) |  | 27.4 µM (inactive) | 34 µM (inactive) | 21.9 µM (inactive) | 52 µM (inactive) | 31 µM (inactive) | 28.4 µM (inactive) | 21.1 µM (inactive) |
| CCOC(=O)Cc1nnc2n(-c3ccccc3)c(=O)c3ccccc3n12 | > 100 µM (inactive) | 41.6 µM (inactive) | > 100 µM (inactive) | > 100 µM (inactive) | 46.1 µM (inactive) | 20.2 µM (inactive) | > 100 µM (inactive) | > 100 | > 100 µM (inactive) | > 100 µM (inactive) | > 100 µM (inactive) | > 100 µM (inactive) | 44.3 µM (inactive) | 77.4 µM (inactive) | 34.5 µM (inactive) |  | > 100 µM (inactive) | > 100 µM (inactive) | > 100 µM (inactive) | > 100 µM (inactive) |
| Cc1ccc(C)c(COCCOCn2c(=O)[nH]c(=O)c3cc(Br)ccc32)c1 | 47.8 µM (inactive) | > 100 µM (inactive) | 94.2 µM (inactive) | 74.6 µM (inactive) | 72.1 µM (inactive) | 81.1 µM (inactive) | > 100 µM (inactive) | > 100 | > 100 µM (inactive) | > 100 µM (inactive) | > 100 µM (inactive) | > 100 µM (inactive) | 53 µM (inactive) | 62.4 µM (inactive) | > 100 µM (inactive) |  | 90.8 µM (inactive) | > 100 µM (inactive) | > 100 µM (inactive) | 29.4 µM (inactive) |
| C=C1[C@@H]([C@@]2(C)C=CC(=O)C(C)(C)[C@@H]2CC(=O)OC)CC[C@@]2(C)[C@H](c3ccoc3)OC(=O)[C@H]3O[C@]132 [ANDIROBIN] | > 100 µM (inactive) | > 100 µM (inactive) | > 100 µM (inactive) | 94.4 µM (inactive) | > 100 µM (inactive) | > 100 µM (inactive) | > 100 µM (inactive) | > 100 |  | > 100 µM (inactive) | > 100 µM (inactive) | 79.4 µM (inactive) | 77.4 µM (inactive) | > 100 µM (inactive) | 40.7 µM (inactive) |  | > 100 µM (inactive) | > 100 µM (inactive) | > 100 µM (inactive) | > 100 µM (inactive) |
